Data set [1] concerns tetanus toxoid. Description: Tetanus toxoid remaining in supernatant after stirring with octadecyl tyrosine. It counts as physicochemical. The following applies: pH 7.0, 24 hours room temperature. As for the experimental part: Tetanus toxoid solution (10 ml, 30 Lf/ml, pH 7.0) was placed in a container with a magnetic stirring bar. An ether solution of octadecyl tyrosine (0.3 ml, 30 mg/ml) was added, the mixture stirred rapidly and the ether removed under vacuum. The resulting cloudy solution was stirred at room temperature for 24 hours.
To tetanus toxoid solution (10 ml, 30 Lf/ml, pH 7.0) was added dry octadecyl tyrosine base (10 mg) and the mixture stirred for 24 hours at room temperature.

Data set [2] concerns tetanus toxoid. Also on record: species or system guinea pigs. The following applies: guinea pig, in vivo, sc.
Data set [3] deals with guinea pigs which had been sensitized to tetanus toxoid. The following applies: guinea pig, in vivo.

For `CCCCCCCCCCCCCCCCCCOC(=O)[C@@H](N)Cc1ccc(O)cc1` [octadecyl tyrosine], the “tetanus toxoid in supernatant, Procedure B” value in data set [1] (dry base 10 mg added to 10 ml toxoid 30 Lf/ml) is given as “no detectable tetanus toxoid”. For the same compound, the “tetanus toxoid in supernatant, Procedure A” value in data set [1] (ether solution 0.3 ml, 30 mg/ml added to 10 ml toxoid 30 Lf/ml, after centrifuging) is “no detectable tetanus toxoid”.

Tetanus Toxoid: in data set [2], the “Antibody Units/ml, 4 Weeks” value turned out to be 1.39 ± 0.2 Units/ml and the “Antibody Units/ml, 61/2 weeks” value is on record as 7.2 ± 1.2 Units/ml. Moreover, the “Diameter of skin reaction” value in data set [3] amounted to 17 ± 1.47 mm.
